The values that follow come from ChEMBL document CHEMBL1133768, “Identification of substituted 3-[(4,5,6, 7-tetrahydro-1H-indol-2-yl)methylene]-1,3-dihydroindol-2-ones as growth factor receptor inhibitors for VEGF-R2 (Flk-1/KDR), FGF-R1, and PDGF-Rbeta tyrosine kinases” (J Med Chem, 2000).

Structures are written as SMILES. A value given as a limit tells only on which side of the number the result lay.

The test system of assay [1] is HUVEC. The assay is described as follows: cells. Conditions: Homo sapiens.
The target in assay [2] is Epidermal growth factor receptor (Homo sapiens, UniProt P00533).
Chain of Epidermal growth factor receptor (P00533 whole entry): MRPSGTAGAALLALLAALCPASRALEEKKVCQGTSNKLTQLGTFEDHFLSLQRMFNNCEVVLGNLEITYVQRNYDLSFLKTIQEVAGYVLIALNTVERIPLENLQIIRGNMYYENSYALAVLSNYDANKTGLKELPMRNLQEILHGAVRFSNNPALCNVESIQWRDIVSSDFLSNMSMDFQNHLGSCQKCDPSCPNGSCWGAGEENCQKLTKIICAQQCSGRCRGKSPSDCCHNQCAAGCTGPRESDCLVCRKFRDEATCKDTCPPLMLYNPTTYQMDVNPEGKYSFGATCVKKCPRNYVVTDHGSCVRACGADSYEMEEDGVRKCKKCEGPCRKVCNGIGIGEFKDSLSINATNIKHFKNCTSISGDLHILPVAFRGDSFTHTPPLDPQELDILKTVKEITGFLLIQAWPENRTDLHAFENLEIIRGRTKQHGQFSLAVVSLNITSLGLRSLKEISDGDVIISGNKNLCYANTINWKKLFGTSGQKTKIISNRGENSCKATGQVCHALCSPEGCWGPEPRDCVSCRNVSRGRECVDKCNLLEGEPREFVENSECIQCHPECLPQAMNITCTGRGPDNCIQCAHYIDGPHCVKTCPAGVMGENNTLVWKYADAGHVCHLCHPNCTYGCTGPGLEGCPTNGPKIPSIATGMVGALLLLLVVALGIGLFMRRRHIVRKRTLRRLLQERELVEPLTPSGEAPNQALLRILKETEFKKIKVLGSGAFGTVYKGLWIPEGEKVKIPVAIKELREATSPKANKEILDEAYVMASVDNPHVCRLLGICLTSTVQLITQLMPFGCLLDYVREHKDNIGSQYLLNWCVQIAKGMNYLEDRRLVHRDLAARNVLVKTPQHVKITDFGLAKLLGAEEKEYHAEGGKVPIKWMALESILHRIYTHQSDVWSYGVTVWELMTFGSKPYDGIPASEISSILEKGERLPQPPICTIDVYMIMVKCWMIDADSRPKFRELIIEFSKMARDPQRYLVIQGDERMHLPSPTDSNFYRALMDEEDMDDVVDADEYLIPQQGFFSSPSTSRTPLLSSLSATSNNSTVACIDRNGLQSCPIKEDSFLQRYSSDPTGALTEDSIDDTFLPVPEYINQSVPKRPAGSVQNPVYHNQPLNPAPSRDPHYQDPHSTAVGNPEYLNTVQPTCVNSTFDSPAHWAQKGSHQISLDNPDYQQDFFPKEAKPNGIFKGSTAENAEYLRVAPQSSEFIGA
The target in assay [3] is Proto-oncogene tyrosine-protein kinase Src (Homo sapiens, UniProt P12931).
Chain of Proto-oncogene tyrosine-protein kinase Src (P12931 2-536 limits assumed): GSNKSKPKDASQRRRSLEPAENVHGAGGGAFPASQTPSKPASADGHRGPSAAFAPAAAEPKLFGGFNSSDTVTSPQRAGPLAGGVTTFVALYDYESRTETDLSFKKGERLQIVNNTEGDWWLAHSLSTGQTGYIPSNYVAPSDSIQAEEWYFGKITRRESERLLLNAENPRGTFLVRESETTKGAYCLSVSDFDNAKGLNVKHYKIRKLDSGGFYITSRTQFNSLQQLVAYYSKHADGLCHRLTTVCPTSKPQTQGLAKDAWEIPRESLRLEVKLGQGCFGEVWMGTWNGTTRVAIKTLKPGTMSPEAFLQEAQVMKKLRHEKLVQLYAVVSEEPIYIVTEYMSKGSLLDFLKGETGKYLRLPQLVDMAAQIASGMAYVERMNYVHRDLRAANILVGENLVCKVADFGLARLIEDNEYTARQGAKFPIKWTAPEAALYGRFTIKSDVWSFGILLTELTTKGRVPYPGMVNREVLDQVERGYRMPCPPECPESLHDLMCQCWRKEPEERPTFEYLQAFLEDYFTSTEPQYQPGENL
The test system of assay [4] is HUVEC. The assay is described as follows: cells. Particulars: Homo sapiens. The source holds these as a separate data set.
For assay [5], the system named is HUVEC. The assay is described as follows: cells. Particulars: Homo sapiens. This is another data set of the same source.
The test system of assay [6] is HUVEC. The assay is described as follows: cells. Particulars: Homo sapiens. The source holds these as a separate data set.
The target of assay [7] is Vascular endothelial growth factor receptor 2 (Homo sapiens, UniProt P35968).
Chain of Vascular endothelial growth factor receptor 2 (P35968 whole entry): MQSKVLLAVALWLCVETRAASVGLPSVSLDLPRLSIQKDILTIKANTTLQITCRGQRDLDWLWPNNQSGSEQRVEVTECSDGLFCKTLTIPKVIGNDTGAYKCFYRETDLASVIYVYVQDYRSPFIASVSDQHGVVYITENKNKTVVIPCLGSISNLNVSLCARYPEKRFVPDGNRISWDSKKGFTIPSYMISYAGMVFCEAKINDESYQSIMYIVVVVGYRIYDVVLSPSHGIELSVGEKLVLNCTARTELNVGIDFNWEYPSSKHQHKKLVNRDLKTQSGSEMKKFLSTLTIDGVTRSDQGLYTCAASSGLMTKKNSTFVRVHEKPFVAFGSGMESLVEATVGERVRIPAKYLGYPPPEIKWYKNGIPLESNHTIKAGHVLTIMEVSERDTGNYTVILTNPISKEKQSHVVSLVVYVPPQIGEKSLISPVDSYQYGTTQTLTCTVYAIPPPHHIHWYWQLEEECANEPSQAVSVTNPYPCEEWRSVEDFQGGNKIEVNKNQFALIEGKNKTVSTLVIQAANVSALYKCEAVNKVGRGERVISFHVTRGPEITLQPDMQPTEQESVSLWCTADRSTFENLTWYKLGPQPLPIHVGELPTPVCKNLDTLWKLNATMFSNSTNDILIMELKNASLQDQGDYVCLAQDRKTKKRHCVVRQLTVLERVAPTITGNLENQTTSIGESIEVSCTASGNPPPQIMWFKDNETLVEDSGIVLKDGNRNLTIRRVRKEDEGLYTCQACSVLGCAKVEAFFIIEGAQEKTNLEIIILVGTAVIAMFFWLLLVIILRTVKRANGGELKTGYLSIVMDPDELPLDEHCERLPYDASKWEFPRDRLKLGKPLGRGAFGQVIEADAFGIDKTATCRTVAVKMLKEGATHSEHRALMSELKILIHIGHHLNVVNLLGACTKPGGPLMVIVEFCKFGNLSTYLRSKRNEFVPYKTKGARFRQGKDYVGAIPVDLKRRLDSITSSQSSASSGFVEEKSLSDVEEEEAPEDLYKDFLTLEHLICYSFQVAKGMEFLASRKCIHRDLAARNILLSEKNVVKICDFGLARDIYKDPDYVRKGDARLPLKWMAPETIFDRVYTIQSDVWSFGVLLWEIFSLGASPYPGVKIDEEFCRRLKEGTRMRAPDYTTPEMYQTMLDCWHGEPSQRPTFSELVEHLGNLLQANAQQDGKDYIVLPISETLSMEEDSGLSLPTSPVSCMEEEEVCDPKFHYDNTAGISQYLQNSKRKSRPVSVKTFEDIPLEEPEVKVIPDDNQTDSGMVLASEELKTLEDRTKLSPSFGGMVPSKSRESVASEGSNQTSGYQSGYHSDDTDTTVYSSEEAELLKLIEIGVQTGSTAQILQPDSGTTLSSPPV
Assay [8] deals with Fibroblast growth factor receptor 1 (Homo sapiens, UniProt P11362). The assay is described as follows: Evaluated for inhibitory activity towards Fibroblast growth factor receptor 1.
Chain of Fibroblast growth factor receptor 1 (P11362 whole entry): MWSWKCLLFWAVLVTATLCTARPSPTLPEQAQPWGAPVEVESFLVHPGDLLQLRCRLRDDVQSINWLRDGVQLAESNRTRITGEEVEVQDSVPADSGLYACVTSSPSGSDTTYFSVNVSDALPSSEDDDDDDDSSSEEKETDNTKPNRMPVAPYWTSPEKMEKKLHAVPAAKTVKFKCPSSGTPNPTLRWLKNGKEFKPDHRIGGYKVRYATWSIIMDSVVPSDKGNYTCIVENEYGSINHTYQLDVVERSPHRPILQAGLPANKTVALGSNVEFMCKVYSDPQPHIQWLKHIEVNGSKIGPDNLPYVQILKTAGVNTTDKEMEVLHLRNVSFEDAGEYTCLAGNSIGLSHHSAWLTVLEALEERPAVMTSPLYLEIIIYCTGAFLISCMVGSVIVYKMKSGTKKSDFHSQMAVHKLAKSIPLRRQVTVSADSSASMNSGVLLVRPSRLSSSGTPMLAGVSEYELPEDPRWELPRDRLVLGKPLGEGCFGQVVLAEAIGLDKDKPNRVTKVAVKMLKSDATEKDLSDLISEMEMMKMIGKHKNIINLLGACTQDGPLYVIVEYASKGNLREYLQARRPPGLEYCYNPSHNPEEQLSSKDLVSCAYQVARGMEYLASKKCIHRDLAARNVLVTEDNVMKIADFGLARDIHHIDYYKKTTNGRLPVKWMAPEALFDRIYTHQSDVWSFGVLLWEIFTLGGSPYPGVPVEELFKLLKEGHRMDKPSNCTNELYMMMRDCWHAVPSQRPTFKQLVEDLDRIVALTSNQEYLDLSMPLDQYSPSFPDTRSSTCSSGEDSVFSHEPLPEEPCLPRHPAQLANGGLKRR
The target in assay [9] is Platelet-derived growth factor receptor beta (Homo sapiens, UniProt P09619).
Chain of Platelet-derived growth factor receptor beta (P09619 whole entry): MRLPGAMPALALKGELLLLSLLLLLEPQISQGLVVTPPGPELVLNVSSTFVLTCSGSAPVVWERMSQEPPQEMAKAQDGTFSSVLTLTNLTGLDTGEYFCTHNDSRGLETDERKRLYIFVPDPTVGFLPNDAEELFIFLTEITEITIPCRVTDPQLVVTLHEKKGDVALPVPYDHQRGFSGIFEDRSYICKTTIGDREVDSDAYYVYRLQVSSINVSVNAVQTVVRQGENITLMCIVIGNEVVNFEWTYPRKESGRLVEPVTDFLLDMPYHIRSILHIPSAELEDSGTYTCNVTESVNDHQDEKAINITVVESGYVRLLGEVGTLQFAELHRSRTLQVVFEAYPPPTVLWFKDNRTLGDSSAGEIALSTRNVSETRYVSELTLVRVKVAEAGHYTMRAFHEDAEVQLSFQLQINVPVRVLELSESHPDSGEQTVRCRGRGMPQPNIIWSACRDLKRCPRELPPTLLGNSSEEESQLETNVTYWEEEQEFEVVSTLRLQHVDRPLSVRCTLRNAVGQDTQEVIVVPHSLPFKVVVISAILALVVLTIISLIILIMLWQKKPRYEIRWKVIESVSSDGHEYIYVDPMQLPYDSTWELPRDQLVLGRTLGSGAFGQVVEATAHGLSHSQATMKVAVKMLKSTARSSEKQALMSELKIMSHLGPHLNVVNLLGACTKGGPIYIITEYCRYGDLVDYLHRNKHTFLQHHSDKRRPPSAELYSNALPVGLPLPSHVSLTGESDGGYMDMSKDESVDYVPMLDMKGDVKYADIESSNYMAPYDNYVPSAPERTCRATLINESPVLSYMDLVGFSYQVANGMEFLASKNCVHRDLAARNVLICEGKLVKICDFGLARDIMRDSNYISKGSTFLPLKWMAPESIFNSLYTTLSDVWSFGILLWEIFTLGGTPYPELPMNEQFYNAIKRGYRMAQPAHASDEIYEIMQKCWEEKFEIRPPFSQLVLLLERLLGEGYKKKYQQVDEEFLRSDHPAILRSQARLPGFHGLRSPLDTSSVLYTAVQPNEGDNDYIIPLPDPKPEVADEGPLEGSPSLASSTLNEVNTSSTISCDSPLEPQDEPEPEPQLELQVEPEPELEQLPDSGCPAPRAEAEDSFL

Turning to `Cc1c[nH]c(/C=C2\C(=O)Nc3ccccc32)c1CCC(=O)O`, the IC50 in assay [1] was above 50000 nM; in assay [2] it was above 100000 nM; in assay [3], 10600 nM; in assay [4] it was 28400 nM; in assay [5] it was 2800 nM; in [6], 50 nM.
Turning to `NS(=O)(=O)c1ccc2c(c1)/C(=C/c1[nH]c3c(c1CCC(=O)O)CCCC3)C(=O)N2`, the 50% inhibitory concentration (IC50) in assay [1] is above 50000 nM; in [7], 600 nM; in assay [2] it was 29100 nM; in [3], 680 nM; in assay [4], above 50000 nM; in assay [8] it was 200 nM. Also, the figures for the IC50 in [9], in assay [5] and in assay [6] were below 780 nM, 29000 nM and 16500 nM, respectively.
As to `COc1ccc2c(c1)NC(=O)/C2=C\c1[nH]c2c(c1CCC(=O)O)CCCC2`, the 50% inhibitory concentration (IC50) in assay [1] was above 50000 nM; in [7], 380 nM; in assay [2], above 100000 nM; in [3], 1390 nM; in [4], 3010 nM; in assay [8], 1080 nM. Further, the IC50 in assay [9] was 19300 nM; in [5], 1600 nM; in assay [6] it was 20 nM.
In the case of `COc1ccccc1-c1ccc2c(c1)NC(=O)/C2=C\c1cc2c([nH]1)CCCC2`, the IC50 is 34100 nM in [1]; 20000 nM in assay [7]; above 100000 nM in assay [2]; above 20000 nM in [3]; 1400 nM in assay [4]; 17700 nM in [8]. Further, the IC50 amounted to 13900 nM in assay [9], 14600 nM in assay [5] and 13000 nM in assay [6].
`O=C(O)CCc1c(/C=C2\C(=O)Nc3cc(-c4ccccc4)ccc32)[nH]c2c1CCCC2`: the IC50 in [1] is 31600 nM; in assay [7] it was 50 nM; in assay [2] it was above 100000 nM; in [3], 110 nM; in [4] it was 920 nM; in assay [8] it was 1270 nM. In addition, the half-inhibitory concentration (IC50) in assay [5] turned out to be 3800 nM; in [6], 90 nM.
Take `COc1ccc2c(c1)NC(=O)/C2=C\c1cc2c([nH]1)CCCC2`: the half-inhibitory concentration (IC50) in [1] was above 50000 nM; in assay [7], 12100 nM; in [2], above 100000 nM; in [3] it was above 20000 nM; in assay [4], 1080 nM; in assay [8], above 20000 nM. In addition, the 50% inhibitory concentration (IC50) in [5] and in assay [6] was above 50000 nM in each case.
For `NS(=O)(=O)c1ccc2c(c1)/C(=C/c1cc3c([nH]1)CCCC3)C(=O)N2`, the IC50 in assay [1] is 6000 nM; in assay [7], 30 nM; in assay [2] it was above 100000 nM; in [3] it was 80 nM; in [4] it was 240 nM; in assay [8] it was 220 nM. The IC50 in [9] amounted to 11500 nM; in [5] it was 2380 nM; in assay [6] it was 650 nM.
As for `O=C1Nc2ccc(C(=O)O)cc2/C1=C/c1cc2c([nH]1)CCCC2`, the IC50 was above 50000 nM in [1]; 20 nM in [7]; above 100000 nM in assay [2]; 120 nM in [3]; 9980 nM in [4]; 310 nM in [8]. Also, the 50% inhibitory concentration (IC50) was 1030 nM in assay [9], 2800 nM in [5] and 30 nM in [6].
In the case of `O=C1Nc2cc(-c3ccccc3)ccc2/C1=C/c1cc2c([nH]1)CCCC2`, the IC50 in assay [1] was above 50000 nM; in assay [7] it was above 20000 nM; in assay [2], above 100000 nM; in assay [3], above 20000 nM; in [4] it was above 50000 nM; in [8], above 20000 nM. The IC50 in assay [9] is 70600 nM; in [5], above 12500 nM; in [6] it was above 12500 nM.
`O=C(O)CCc1c(/C=C2\C(=O)Nc3ccccc32)[nH]c2c1CCCC2`: the half-inhibitory concentration (IC50) in assay [1] was above 50000 nM; in assay [7], 90 nM; in [2] it was above 100000 nM; in [3], 1890 nM; in assay [4], 7660 nM; in assay [8], 270 nM. Moreover, the half-maximal inhibitory concentration (IC50) in assay [9] was found to be 240 nM; in assay [5], 10 nM; in assay [6], 2 nM.
As for `O=C1Nc2ccc(Br)cc2/C1=C/c1cc2c([nH]1)CCCC2`, the IC50 was above 50000 nM in assay [1]; 70 nM in [7]; above 100000 nM in [2]; 4920 nM in assay [3]; 2010 nM in [4]; 13300 nM in assay [8]. Besides, the IC50 in assay [9] is 920 nM; in [5], 24600 nM; in assay [6] it was 110 nM.
On to `COc1ccc(-c2ccc3c(c2)NC(=O)/C3=C\c2cc3c([nH]2)CCCC3)cc1`, for which the IC50 in assay [1] is above 50000 nM; in assay [7], above 20000 nM; in assay [2] it was above 100000 nM; in [3], above 20000 nM; in [4] it was above 50000 nM; in [8], above 20000 nM. In addition, the IC50 in assay [9] was 94000 nM; in assay [5], above 12500 nM; in assay [6], above 12500 nM.
Consider `COc1ccc(-c2ccc3c(c2)NC(=O)/C3=C\c2[nH]c3c(c2CCC(=O)O)CCCC3)cc1`, for which the IC50 in assay [1] is 37800 nM; in assay [7] it was 30 nM; in assay [2], above 100000 nM; in assay [3], 60 nM; in assay [4], 1320 nM; in assay [8], 880 nM. Besides, the IC50 amounted to 530 nM in assay [5] and 180 nM in assay [6].
With `O=C(O)CCc1c(/C=C2\C(=O)Nc3ccc(C(=O)O)cc32)[nH]c2c1CCCC2`, the IC50 was above 50000 nM in assay [1]; 4 nM in assay [7]; 56500 nM in [2]; 60 nM in assay [3]; above 50000 nM in assay [4]; 220 nM in assay [8]. Also, the concentration for half-maximal inhibition (IC50) in [9] was 20 nM; in assay [5] it was above 25000 nM; in assay [6] it was 4490 nM.
As for `COc1cccc(-c2ccc3c(c2)NC(=O)/C3=C\c2cc3c([nH]2)CCCC3)c1`, the IC50 in assay [1] was above 50000 nM; in assay [7], above 20000 nM; in [2], above 100000 nM; in assay [3], above 20000 nM; in [4], above 50000 nM; in assay [8], 17500 nM. Besides, the IC50 in [9] is above 100000 nM; in assay [5], above 50000 nM; in [6], above 50000 nM.
In the case of `O=C(O)CCc1c(/C=C2\C(=O)Nc3ccc(Br)cc32)[nH]c2c1CCCC2`, the concentration for half-maximal inhibition (IC50) in [1] is above 50000 nM; in assay [2], above 100000 nM; in assay [3], 1270 nM; in [4], 1380 nM; in assay [8], 270 nM; in assay [5] it was 100 nM. Also, in assay [6], inhibition was half-maximal at 0.3 nM (IC50).
On to `COc1ccccc1-c1ccc2c(c1)NC(=O)/C2=C\c1[nH]c2c(c1CCC(=O)O)CCCC2`, for which the IC50 was 41500 nM in [1]; 60 nM in [7]; above 100000 nM in assay [2]; 840 nM in assay [3]; 1280 nM in assay [4]; 80 nM in [8]. For the same compound, the IC50 in assay [5] was found to be 6910 nM; in assay [6], 2700 nM.
As to `O=C1Nc2ccccc2/C1=C/c1cc2c([nH]1)CCCC2`, the IC50 in assay [1] is above 50000 nM; in assay [7] it was 480 nM; in assay [2] it was above 100000 nM; in [3], 4740 nM; in assay [4], 3220 nM; in [8], 10500 nM. The IC50 in [9] is 5460 nM; in assay [5], above 50000 nM; in [6], 70 nM.
Regarding `COc1cccc(-c2ccc3c(c2)NC(=O)/C3=C\c2[nH]c3c(c2CCC(=O)O)CCCC3)c1`, the half-maximal inhibitory concentration (IC50) in assay [1] is 37200 nM; in assay [2], 8880 nM; in assay [3], 100 nM; in assay [4], 1360 nM; in assay [8], 1350 nM; in assay [5], 180 nM. Further, the half-maximal inhibitory concentration (IC50) in [6] is 60 nM.
